Measured values as given in EP0102564A2, “Method for the removal of toxins bound to protein or lipid from blood or blood fractions, and use of certain compounds as liberating agents” (FRAUNHOFER-GESELLSCHAFT ZUR FÖRDERUNG DER ANGEWANDTEN …, priority 1982, dated 1984).
Like-named read-outs stand apart in the source and are kept apart here.

Tests used:
Plasmaproteine = conditions: cited from earlier work
[1] = system: Methotrexat, Proteinbindung; assay: Uncoupling of toxin from protein binding, molar ratio K (Table III), toxin Methotrexat; conditions: molar ratio of uncoupler to toxin
Text: Werte können Tabelle III entnommen werden.

Row | Compound | Bindung von Pharmaka an Plasmaproteine (Plasmaproteine) | Bindung von Pharmaka an Plasmaproteine (Plasmaproteine; plasma) | K-Werte [1]
1 | NNC(=O)c1ccncc1 [Isoniazid] | 100% | – | –
2 | CCN(CC)CCCC(C)Nc1ccnc2cc(Cl)ccc12 (racemic) [Chloroquin] | – | 55% | –
3 | O=C(O)c1ccccc1O [Salicylsäure] | – | 80% | ca. 5
4 | Phenylbutazon | – | 98% | ca. 2
5 | Nc1nc2c(c(=O)[nH]1)N(C=O)C(CNc1ccc(C(=O)N[C@@H](CCC(=O)O)C(=O)O)cc1)CN2 (stereo partly shown) [Leucoverin] | – | – | ca. 5
6 | O=c1ccc2ccccc2o1 [Coumarin] | – | 99% | –
7 | Nc1nc2ncc(CNc3ccc(C(=O)N[C@@H](CCC(=O)O)C(=O)O)cc3)nc2c(=O)[nH]1 [Folsäure] | – | – | ca. 5
8 | CN(C)CCCN1c2ccccc2CCc2ccccc21 [Imipramin] | – | 90% | –
9 | CN(C)CCCN1c2ccccc2Sc2ccc(Cl)cc21 [Chlorpromazin] | – | 90% | –
10 | CC1=NS(=O)(=O)c2cc(Cl)ccc2N1 [Diazoxid] | – | 90% | –
11 | O=C1OC(c2ccc(O)c(S(=O)(=O)O)c2)(c2ccc(O)c(S(=O)(=O)O)c2)c2c(Br)c(Br)c(Br)c(Br)c21 [Sulfobromphthalein] | – | – | ca. 5
